Tests used:
embryonic zebrafish = experiment: Blinded re-screen of top 10 prioritized ChemBridge compounds for developmental phenotypes in embryonic zebrafish; format: in vivo
Protocol: Male and female wild-type (AB) fish were housed and embryos bred for screening using standard protocols. […] 10 mM compound stocks were diluted to 2 mM using DMSO, and 1 μL of each diluted compound solution was introduced into individual wells at 5 hours post fertilization (hpf) using a manual multichannel pipettor (10 uM final concentration). The first and last column of each plate received only DMSO, serving as negative control wells.
Embryos were screened for a series of developmental phenotypes at both 24 and 48 hpf using standard light microscopy. […] Only those wells where at least two of the three embryos were dead or delayed were annotated as a hit for 24 hour death or delay/arrest, respectively.
Resulting scores for each phenotype were used to rank the over 900,000 compounds. Enrichment for compounds with high (>0.95) similarity to known therapeutics (defined using Tanimoto Coefficient of molecular fingerprints) was calculated for each of the 6 ranked lists using gene set enrichment analysis^69. The top 10 highest-ranking compounds from each of the 6 lists were screened as described above, blinded and in duplicate.

zebrafish embryos = experiment: Respiration rate analysis (Seahorse XF24 oxygen consumption); format: in vivo; details: embryos from 5 hpf, versus DMSO control
Protocol: Analysis of embryonic respiration was performed using a Seahorse XF24 analyzer (Agilent). Embryos at 5 hours post fertilization were arrayed in E3 media at 3 per well in a 24-well standard Seahorse plate using an isolating mesh (as in Stackley et al^72). Each plate contained four replicates of each indicated compound of interest, as well as 4 control wells receiving the equivalent DMSO as contained in the indicated compound solution, and 4 wells with no embryos present to act as a baseline for oxygen content of the media. The sample baseline was read for 5 cycles (3 minute mix, 2 minute wait, 5 minute measure), then compounds were introduced in a single 40-cycle injection phase (3 minute mix, 2 minute wait, 5 minute measure). Measurement data were exported using Seahorse software (Agilent) and averaged over 3 experimental days.

For CCC1(CC)CCN(C(=O)c2cc(COc3ccc4ncccc4c3)on2)C1 [ChemBridge ID 65692859, 6-([3-[(3,3-diethylpyrrolidin-1-yl)carbonyl]isoxazol-5-yl]methoxy)quinoline], the “Hit (predicted phenotype observed)” value (embryonic zebrafish; Prediction: Delay/Arrest) was “Yes”, the “Phenotype Observed” value (embryonic zebrafish; embryonic zebrafish, 10 uM introduced at 5 hpf, scored at 24 and 48 hpf, blinded, in duplicate) was “Bud stage at 24 h, dead at 48 h” and the “respiration rate (oxygen consumption rate)” value (zebrafish embryos) was “consistent respiration rate”.
